Data as given in article PMC12412055, “Parallel synthesis of 5′-amino-5′-deoxy-adenosine derivatives for focused chemical space exploration and their application as methyltransferase inhibitors” (RSC Medicinal Chemistry, 2025).
“And” between values parts separate entries of the source, which are not always exact repeats. Equal entries are not always repeated. Where two headings read alike, the source gives them in different places. Each block holds one compound with its values, some of them ahead of it.

How the values were obtained:
SARS-CoV-2 nsp14/10 = SARS-CoV-2 nsp14/10 (Severe acute respiratory syndrome coronavirus 2, UniProt P0DTD1); experiment: Fluorescence polarization (FP) FTAD displacement assay, nsp14/10; assay type: binding; conditions: for Kd: 50 nM FTAD; for displacement of FTAD: 1 μM compound
METTL3/14 [1] = molecular target: T1, METTL3/14 (Homo sapiens, UniProt Q86U44); experiment: Fluorescence polarization (FP) FTAD displacement assay, METTL3/14; assay type: binding; conditions: for KD (METTL3/14, FP-assay) / Kd / displacement of FTAD: 50 nM FTAD, 1 μM enzyme; for KD (METTL3/14, FP-assay) / Kd: compound dilution series; for displacement of FTAD: 100 μM compound
T1 construct: human METTL3 (UniProt: Q86U44 aa 252–580); Strep tag-II (C); made in house; host or cells: E. coli BL21(DE3), pETduet-1

nsp14/10 [2] = molecular target: T2, nsp14/10 (Severe acute respiratory syndrome coronavirus 2, UniProt P0DTD1); experiment: biochemical; assay type: binding; conditions: for Kd: read-out: KD (ITC)
nsp14/10 [3] = molecular target: T2, nsp14/10; conditions: cited from earlier work
nsp14/10 [4] = molecular target: T2, nsp14/10; experiment: Microscale thermophoresis (MST) FTAD displacement assay; assay type: binding; conditions: 50 nM FTAD, 3-fold dilution series of nsp14/10
human DNMT2 = molecular target: human DNMT2; set-up: method as in PMID 39145518; conditions: probe affinity; read-out: KD of FTAD for DNMT2; cited from earlier work
METTL3/14 [5] = molecular target: T1, METTL3/14; set-up: method as in PMID 39145518; conditions: probe affinity; read-out: KD of FTAD for METTL3/14; cited from earlier work
[6] = 1 μM enzyme, compound dilution series, read-out: KD (nsp14/10, determined by FP-assay)
[7] = mean ± standard deviation from duplicate measurements, 25 °C
[8] = single measurement (one of duplicates)
[9] = ligand 0.305 µM, dilution series
[10] = ligand 0.914 µM, dilution series
[11] = ligand 2.74 µM, dilution series
[12] = ligand 8.22 µM, dilution series
[13] = ligand 24.7 µM, dilution series
[14] = ligand 74.0 µM, dilution series
[15] = ligand 100 µM, triplicate wells
[16] = ligand 100 µM, triplicate wells, enzyme not printed in Table S4

T1 sequence (Q86U44 252-580): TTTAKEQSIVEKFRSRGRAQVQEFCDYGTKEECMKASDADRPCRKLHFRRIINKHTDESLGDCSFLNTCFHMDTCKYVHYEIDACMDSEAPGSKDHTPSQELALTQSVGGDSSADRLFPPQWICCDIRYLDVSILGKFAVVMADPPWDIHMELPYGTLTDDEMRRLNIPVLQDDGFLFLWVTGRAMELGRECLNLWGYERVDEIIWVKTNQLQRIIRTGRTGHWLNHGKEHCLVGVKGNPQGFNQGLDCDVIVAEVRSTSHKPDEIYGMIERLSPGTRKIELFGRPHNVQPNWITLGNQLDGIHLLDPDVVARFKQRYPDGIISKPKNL
T1 sequence (Q9HCE5 108-444 partner limits assumed): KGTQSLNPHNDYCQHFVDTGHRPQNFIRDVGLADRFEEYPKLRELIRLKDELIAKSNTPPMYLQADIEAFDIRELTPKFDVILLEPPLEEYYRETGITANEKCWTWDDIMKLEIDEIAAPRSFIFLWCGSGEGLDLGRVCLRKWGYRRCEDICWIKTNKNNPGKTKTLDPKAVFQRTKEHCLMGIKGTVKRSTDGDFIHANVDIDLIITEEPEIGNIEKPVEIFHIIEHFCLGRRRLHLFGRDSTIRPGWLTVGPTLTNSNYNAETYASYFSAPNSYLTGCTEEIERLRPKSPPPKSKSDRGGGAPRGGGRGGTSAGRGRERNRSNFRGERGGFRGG

SMILES: Nc1ncnc2c1ncn2[C@@H]1O[C@H](CNC(=O)Cc2cccc(F)c2Br)[C@@H](O)[C@H]1O [Compound 63, N-(((2R,3S,4R,5R)-5-(6-Amino-9H-purin-9-yl)-3,4-dihydroxytetra hydrofuran-2-yl)methyl)-2-(2-bromo-3-fluorophenyl)acetamide]
Kd (SARS-CoV-2 nsp14/10; [6]): 17200 ± 5500 nM

SMILES: Nc1ncnc2c1ncn2[C@@H]1O[C@H](CNS(=O)(=O)c2ccc3ccccc3c2)[C@@H](O)[C@H]1O [Compound 34, N-(((2R,3S,4R,5R)-5-(6-Amino-9H-purin-9-yl)-3,4-dihydroxy-tetrahydrofuran-2-yl)methyl)naphthalene-2-sulfonamide]
KD (METTL3/14, FP-assay) (METTL3/14 [1]): low micromolar affinity | Kd (METTL3/14 [1]): 12900 ± 2000 nM | displacement of FTAD (METTL3/14 [1]): ~92% | displacement of FTAD (SARS-CoV-2 nsp14/10): 100% | KD (ITC) (nsp14/10 [2]; [7]): nanomolar range | -T∆S (ITC) (nsp14/10 [2]; [8]): 12 kcal/mol and 14.9 kcal/mol | stoichiometry n (ITC) (nsp14/10 [2]; [8]): 0.66 and 0.67 | Kd (nsp14/10 [2]; [8]): 165 nM and 214 nM | binding and inhibition of nsp14/10 (nsp14/10 [3]): nanomolar range

SMILES: Nc1ncnc2c1ncn2[C@@H]1O[C@H](C[C@@H](N)CC[C@H](N)C(=O)O)[C@@H](O)[C@H]1O [SFG, sinefungin, reference compound]
displacement of FTAD (METTL3/14 [1]): 92%

SMILES: Nc1ncnc2c1ncn2[C@@H]1O[C@H](CNS(=O)(=O)c2ccc(Br)c([N+](=O)[O-])c2)[C@@H](O)[C@H]1O [Compound 44, N-(((2R,3S,4R,5R)-5-(6-Amino-9H-purin-9-yl)-3,4-dihydroxytetrahydrofuran-2-yl)methyl)-4-bromo-3-nitrobenzenesulfon amide]
inhibition of nsp14/10 (nsp14/10 [3]): low micromolar range

SMILES: Nc1ncnc2c1ncn2[C@@H]1O[C@H](CN(CC[C@H](N)C(=O)O)Cc2cn(CCNC(=O)c3ccc4c(c3)C(=O)OC43c4ccc(O)cc4Oc4cc(O)ccc43)nn2)[C@@H](O)[C@H]1O [FTAD, 5-FAM-triazolyl-adenosyl-diaminobutyric acid]
Kd (SARS-CoV-2 nsp14/10; 2-fold dilution series of nsp14/10 from 3.00 μM to 46.9 nM, read-out: KD(FTAD, nsp14/10), FP-assay): 1300 ± 300 nM | Kd (nsp14/10 [4]): 1200 ± 100 nM | Kd (human DNMT2): 6400 ± 700 nM | Kd (METTL3/14 [5]): 1100 ± 100 nM

SMILES: Nc1ncnc2c1ncn2[C@@H]1O[C@H](CNS(=O)(=O)Cc2ccccc2)[C@@H](O)[C@H]1O [Compound 66, N-(((2R,3S,4R,5R)-5-(6-Amino-9H-purin-9-yl)-3,4-dihydroxytetra hydrofuran-2-yl)methyl)-1-phenylmethanesulfonamide]
Kd (SARS-CoV-2 nsp14/10; [6]): 42300 ± 11100 nM

SMILES: Cc1ccc(S(=O)(=O)NC[C@H]2O[C@@H](n3cnc4c(N)ncnc43)[C@H](O)[C@@H]2O)cc1[N+](=O)[O-] [Compound 47, N-(((2R,3S,4R,5R)-5-(6-Amino-9H-purin-9-yl)-3,4-dihydroxy-tetrahydrofuran-2-yl)methyl)-4-methyl-3-nitrobenzenesulfon amide]
inhibition of nsp14/10 (nsp14/10 [3]): low micromolar range

SMILES: CN(C)c1cccc2c(S(=O)(=O)NC[C@H]3O[C@@H](n4cnc5c(N)ncnc54)[C@H](O)[C@@H]3O)cccc12 [Compound 42, N-(((2R,3S,4R,5R)-5-(6-Amino-9H-purin-9-yl)-3,4-dihydroxy-tetrahydrofuran-2-yl)methyl)-5-(dimethylamino)naphthalen-1-sulfonamide]
KD (METTL3/14, FP-assay) (METTL3/14 [1]): low micromolar affinity | Kd (METTL3/14 [1]): 22500 ± 1400 nM | displacement of FTAD (METTL3/14 [1]): ~92% | fluorescence polarization, raw data (METTL3/14 [1]; [9]): 144 mP and 142 mP and 140 mP | total intensity, raw data (METTL3/14 [1]; [9]): 16997 and 14743 and 15446 | fluorescence polarization, raw data (METTL3/14 [1]; [10]): 131 mP and 134 mP and 139 mP | total intensity, raw data (METTL3/14 [1]; [10]): 16613 and 15443 and 18075 | fluorescence polarization, raw data (METTL3/14 [1]; [11]): 128 mP and 126 mP | total intensity, raw data (METTL3/14 [1]; [11]): 15091 and 15438 and 15739 | fluorescence polarization, raw data (METTL3/14 [1]; [12]): 116 mP and 113 mP and 115 mP | total intensity, raw data (METTL3/14 [1]; [12]): 16190 and 14718 and 16069 | fluorescence polarization, raw data (METTL3/14 [1]; [13]): 90 mP and 84 mP and 93 mP | total intensity, raw data (METTL3/14 [1]; [13]): 17750 and 16617 and 17703 | fluorescence polarization, raw data (METTL3/14 [1]; [14]): 40 mP and 43 mP and 54 mP | total intensity, raw data (METTL3/14 [1]; [14]): 17281 and 16313 and 18091 | total intensity, raw data (METTL3/14 [1]; [15]): 18205 and 16177 and 16524 | fluorescence polarization, raw data (METTL3/14 [1]; [16]): 44 mP and 42 mP and 39 mP | fluorescence polarization, raw data (METTL3/14 [1]; ligand 222 µM, dilution series): 23 mP and 28 mP and 40 mP | total intensity, raw data (METTL3/14 [1]; ligand 222 µM, dilution series): 22984 and 20625 and 20534 | fluorescence polarization, raw data (METTL3/14 [1]; ligand 666 µM, dilution series): 30 mP and 36 mP and 33 mP | total intensity, raw data (METTL3/14 [1]; ligand 666 µM, dilution series): 25251 and 24796 and 26626

total intensity, raw data (METTL3/14 [1]; [15]): 15527 and 14218 and 14357 | fluorescence polarization, raw data (METTL3/14 [1]; [16]): 13 mP and 7 mP and 8 mP
SMILES: Nc1ncnc2c1ncn2[C@@H]1O[C@H](CSCC[C@H](N)C(=O)O)[C@@H](O)[C@H]1O [SAH, S-adenosyl-L-homocysteine, reference compound]

SMILES: Nc1ncnc2c1ncn2[C@@H]1O[C@H](CNS(=O)(=O)Cc2ccc3ccccc3c2)[C@@H](O)[C@H]1O [Compound 65, N-(((2R,3S,4R,5R)-5-(6-Amino-9H-purin-9-yl)-3,4-dihydroxytetra hydrofuran-2-yl)methyl)-1-(naphthalen-2-yl)methanesulfon amide]
Kd (SARS-CoV-2 nsp14/10; [6]): 3800 ± 780 nM

KD (METTL3/14, FP-assay) (METTL3/14 [1]): low micromolar affinity | Kd (METTL3/14 [1]): 16100 ± 4600 nM | displacement of FTAD (METTL3/14 [1]): ~92%
SMILES: Nc1ncnc2c1ncn2[C@@H]1O[C@H](CNS(=O)(=O)c2ccc(-c3ccccc3)cc2)[C@@H](O)[C@H]1O [Compound 40, N-(((2R,3S,4R,5R)-5-(6-Amino-9H-purin-9-yl)-3,4-dihydroxy-tetrahydrofuran-2-yl)methyl)-[1,1′-biphenyl]-4-sulfonamide]

SMILES: Nc1ncnc2c1ncn2[C@@H]1O[C@H](CNS(=O)(=O)c2ccc(Cl)c(C(F)(F)F)c2)[C@@H](O)[C@H]1O [Compound 46, N-(((2R,3S,4R,5R)-5-(6-Amino-9H-purin-9-yl)-3,4-dihydroxy-tetrahydrofuran-2-yl)methyl)-4-chloro-3-(trifluoromethyl) benzenesulfonamide]
displacement of FTAD (SARS-CoV-2 nsp14/10): 100% | KD (ITC) (nsp14/10 [2]; [7]): nanomolar range | Kd (nsp14/10 [2]; [7]): 106 ± 6 nM | -T∆S (ITC) (nsp14/10 [2]; [8]): 15.8 kcal/mol and 13.8 kcal/mol | stoichiometry n (ITC) (nsp14/10 [2]; [8]): 0.43 and 0.44 | Kd (nsp14/10 [2]; [8]): 111 nM and 100 nM

SMILES: Nc1ncnc2c1ncn2[C@@H]1O[C@H](CNS(=O)(=O)/C=C/c2ccccc2)[C@@H](O)[C@H]1O [Compound 35, (E)-N-(((2R,3S,4R,5R)-5-(6-Amino-9H-purin-9-yl)-3,4-di-hydroxytetrahydrofuran-2-yl)methyl)-2-phenylethene-1-sulfonamide]
displacement of FTAD (SARS-CoV-2 nsp14/10): 100% | ΔH (ITC) (nsp14/10 [2]; mean ± standard deviation from duplicate measurements): -32.86 kcal/mol | KD (ITC) (nsp14/10 [2]; [7]): nanomolar range | -T∆S (ITC) (nsp14/10 [2]; [8]): 24.6 kcal/mol and 22.5 kcal/mol | stoichiometry n (ITC) (nsp14/10 [2]; [8]): 0.42 and 0.45 | Kd (nsp14/10 [2]; [8]): 151 nM and 169 nM

SMILES: Cc1cccc(-c2cncc(C(=O)NC[C@H]3O[C@@H](n4cnc5c(N)ncnc54)[C@H](O)[C@@H]3O)c2)c1 [Compound 64, N-(((2R,3S,4R,5R)-5-(6-Amino-9H-purin-9-yl)-3,4-dihydroxytetra hydrofuran-2-yl)methyl)-5-(m-tolyl)nicotinamide]
Kd (SARS-CoV-2 nsp14/10; [6]): 2900 ± 380 nM
